Reference: article PMC7730961, “Discovery of Novel Dual Extracellular Regulated Protein Kinases (ERK) and Phosphoinositide 3-Kinase (PI3K) Inhibitors as a Promising Strategy for Cancer Therapy” (Molecules, 2020)

What was measured:
HEC1B = assay: Anti-proliferation assay (MTT, 72 h), HEC1B; format: cell-based; conditions: Homo sapiens, HEC-1B, HEC1B cells
Experimental: (§1) Human cancer cell lines HCT116 and HEC1B were cultured in media with 10% FBS (GIBCO, Invitrogen Corporation, NY, USA) at 37 °C in a 5% (v/v) CO2 humidified incubator. The logarithmic growth phase cells were seeded in a 96-well plate with a density of 1 × 10^5 cells/mL, cultured at 37 °C, 5% CO2. Until the cells were 90% confluent, the medium containing compound was added to incubate for 72 h, and then the cell viability was tested by MTT analysis. Taking the drug concentration as the abscissa and the percentage of proliferation inhibitory activity corresponding to each concentration as the ordinate, using Graphpad Prism 5 to do nonlinear regression, the IC50 value of each compound was calculated.

PI3Kα = PI3Kα (Homo sapiens, UniProt P42336); assay: Enzymatic inhibition assay (ADP-Glo Plus luminescence kinase assay), PI3Kα; format: biochemical; conditions: 100 nM compound
PI3Kα, sequence (P42336 whole entry): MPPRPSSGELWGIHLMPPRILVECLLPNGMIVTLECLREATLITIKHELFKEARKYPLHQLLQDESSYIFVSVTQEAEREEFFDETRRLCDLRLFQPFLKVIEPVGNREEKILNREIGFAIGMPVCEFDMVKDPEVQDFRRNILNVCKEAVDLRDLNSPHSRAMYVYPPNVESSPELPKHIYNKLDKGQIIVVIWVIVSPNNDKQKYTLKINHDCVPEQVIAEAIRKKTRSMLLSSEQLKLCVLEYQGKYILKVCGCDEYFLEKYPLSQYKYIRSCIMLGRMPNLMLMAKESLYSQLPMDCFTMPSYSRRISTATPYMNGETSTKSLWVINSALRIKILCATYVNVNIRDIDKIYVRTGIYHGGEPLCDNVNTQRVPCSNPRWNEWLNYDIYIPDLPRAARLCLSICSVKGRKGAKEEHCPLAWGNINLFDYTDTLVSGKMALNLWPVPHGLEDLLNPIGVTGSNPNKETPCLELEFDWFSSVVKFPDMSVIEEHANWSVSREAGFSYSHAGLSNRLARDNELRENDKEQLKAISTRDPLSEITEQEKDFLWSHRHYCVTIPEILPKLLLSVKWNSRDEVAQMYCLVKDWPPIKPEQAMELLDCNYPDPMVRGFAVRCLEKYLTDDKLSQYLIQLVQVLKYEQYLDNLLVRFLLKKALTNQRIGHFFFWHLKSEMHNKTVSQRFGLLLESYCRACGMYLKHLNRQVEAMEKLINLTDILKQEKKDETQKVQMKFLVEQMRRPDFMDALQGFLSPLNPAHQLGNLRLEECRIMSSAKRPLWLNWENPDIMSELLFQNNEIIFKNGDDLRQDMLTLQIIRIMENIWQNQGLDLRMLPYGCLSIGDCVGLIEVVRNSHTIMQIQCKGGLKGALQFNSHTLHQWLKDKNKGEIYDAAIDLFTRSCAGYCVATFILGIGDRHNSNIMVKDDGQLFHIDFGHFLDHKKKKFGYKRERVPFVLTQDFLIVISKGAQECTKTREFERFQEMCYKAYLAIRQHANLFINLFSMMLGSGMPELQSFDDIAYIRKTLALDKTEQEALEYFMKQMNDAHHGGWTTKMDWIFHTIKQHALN
PI3Kα, sequence (P27986 whole entry partner): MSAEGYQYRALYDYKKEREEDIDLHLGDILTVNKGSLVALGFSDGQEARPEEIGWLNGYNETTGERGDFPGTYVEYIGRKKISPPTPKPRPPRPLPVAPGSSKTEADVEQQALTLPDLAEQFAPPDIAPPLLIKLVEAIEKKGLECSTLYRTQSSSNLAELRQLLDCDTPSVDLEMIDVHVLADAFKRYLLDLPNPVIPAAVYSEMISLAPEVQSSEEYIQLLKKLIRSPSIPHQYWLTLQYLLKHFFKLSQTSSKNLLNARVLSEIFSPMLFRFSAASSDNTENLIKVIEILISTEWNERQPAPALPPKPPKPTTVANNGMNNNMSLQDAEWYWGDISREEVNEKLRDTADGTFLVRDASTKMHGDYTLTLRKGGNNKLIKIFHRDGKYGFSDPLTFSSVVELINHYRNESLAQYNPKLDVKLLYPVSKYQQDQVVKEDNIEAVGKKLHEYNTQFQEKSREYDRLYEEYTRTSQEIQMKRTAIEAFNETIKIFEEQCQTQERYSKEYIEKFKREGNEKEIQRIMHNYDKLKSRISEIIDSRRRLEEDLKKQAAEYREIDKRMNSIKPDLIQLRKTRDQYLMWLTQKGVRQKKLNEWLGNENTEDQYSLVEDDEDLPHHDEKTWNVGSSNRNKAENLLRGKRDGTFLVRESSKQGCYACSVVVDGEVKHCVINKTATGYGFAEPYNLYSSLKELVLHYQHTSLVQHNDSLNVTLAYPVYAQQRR
Experimental: The 50 µL reaction mixture contains 40 mM Tris-HCl, pH 7.4, 10 µM ATP, 10 mM MgCl2, 0.1 mg/mL BSA, 1 mM DTT, 0.2 ug/mL ERK 2, ERK 1, PI3Kα, PI3Kβ, PI3Kγ or PI3Kδ and 100 uM lipid substrate. All compounds were diluted in 10% DMSO and tested in 10-dose with 3-fold serial dilution starting at a concentration of 1 μM. Of the dilution, 5 µL was added to a 50 µL reaction so that the final concentration of DMSO is 1% in all of reactions. After all of the reaction mixtures were conducted at 30 °C for 40 min, the assay was performed using ADP-Glo Plus luminescence kinase assay kit. The luminescence signal and the intensity of the luminescence signal value were detected using a multi-well spectrophotometer (the MD-SpectraMax M5 multifunctional microplate reader). It was directly proportional to the […] enzyme activity. The experimental results were converted into active percentages, a dose-response curve is drawn, and the IC50 value of inhibition was calculated using […] PRISM 5 nonlinear regression.

Solubility = format: physicochemical; conditions: relative to parent after introducing a hydrophilic group at the pyrazole NH
HCT116 = assay: Anti-proliferation assay (MTT, 72 h), HCT116; format: cell-based; conditions: Homo sapiens, HCT-116, HCT116 cells
Experimental: as §1

ERK 2 = ERK 2 (Homo sapiens, UniProt P28482); assay: Enzymatic inhibition assay (ADP-Glo Plus luminescence kinase assay), ERK2; format: biochemical; conditions: 100 nM compound
ERK 2, sequence (P28482 whole entry): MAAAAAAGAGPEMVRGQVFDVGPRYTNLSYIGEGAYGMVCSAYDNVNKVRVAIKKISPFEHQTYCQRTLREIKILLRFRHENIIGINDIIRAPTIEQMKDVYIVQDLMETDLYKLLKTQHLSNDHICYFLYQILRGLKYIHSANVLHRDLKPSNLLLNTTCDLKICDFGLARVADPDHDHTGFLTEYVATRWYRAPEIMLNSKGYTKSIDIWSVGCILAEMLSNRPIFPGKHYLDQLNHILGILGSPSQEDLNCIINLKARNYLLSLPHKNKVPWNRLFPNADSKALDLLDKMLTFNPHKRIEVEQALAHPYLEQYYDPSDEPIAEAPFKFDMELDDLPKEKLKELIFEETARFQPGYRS
Experimental: All compounds were diluted in 10% DMSO and tested in 10-dose with 3-fold serial dilution starting at a concentration of 1 μM. Of the dilution, 5 µL was added to a 50 µL reaction so that the final concentration of DMSO is 1% in all of reactions. After all of the reaction mixtures were conducted at 30 °C for 40 min, the assay was performed using ADP-Glo Plus luminescence kinase assay kit. The luminescence signal and the intensity of the luminescence signal value were detected using a multi-well spectrophotometer (the MD-SpectraMax M5 multifunctional microplate reader). It was directly proportional to the inhibition of enzyme activity.

With `O=C(Nc1ncc2ncc(-c3cnn(CCN4CCOCC4)c3)cc2n1)NC1CCCC1` [32l, 1-Cyclopentyl-3-(7-(1-(2-morpholinoethyl)-1H-pyrazol-4-yl)pyrido[3,2-d]pyrimidin-2-yl)urea] the IC50 (HEC1B) was 3.63 µM, the inhibition at 0.1 µM (PI3Kα) was 63.8% and the solubility (Solubility) was “ameliorated”. For the same compound, the IC50 (HCT116) was 1.76 µM and the inhibition at 0.1 µM (ERK 2) was 21.4%.
